Laboratory results from patent US20230120597A1, “CO-AGONISTS AT GLP-1 AND GIP RECEPTORS SUITABLE FOR ORAL DELIVERY” (Novo Nordisk A/S, priority 2020, published 2023).
Read-outs that look alike come from different tables or passages of the source. Starred links: 1 amine or outer side, 2 acyl side, 3 side chain; linkers in the order of their positions; H or OH if unused. Non-standard residues stand in square brackets, D forms with d. Residues, ends and D or L forms follow the SMILES beside them. Groups on a side chain read outwards from the residue. *: point of attachment. C18 diacid = O=C(O)CCCCCCCCCCCCCCCCC(=O)*; γGlu = O=C(O)[C@H](CCC(=O)[*:2])N[*:1]; εLys = N[C@@H](CCCCN[*:1])C(=O)[*:2]; AEEA = NCCOCCOCC(=O)O; Aib = CC(C)(N)C(=O)O

Tests used:
human GLP-1 receptor = biological target: T1, human GLP-1 receptor (Homo sapiens, UniProt P43220); test: In vitro functional potency, CRE luciferase reporter gene assay, whole BHK cells expressing hGLP-1R; assay type: cell-based; conditions: BHK CRE luc2P hGLP-1R cells
T1 construct: expressed in transfected cells; host or cells: BHK (parent line BHKTS13), clone BHK CRE luc2P hGLP-1R
Procedure: (§1) The in vitro functional potency is the measure of target receptor activation in a whole cell assay.
(§2) In vitro functional potency was determined by measuring the response of the target receptor in a reporter gene assay in individual cell lines. […] When the respective receptor is activated, it results in the production of cAMP, which in turn results in expression of the luciferase protein. When assay incubation is completed, luciferase substrate (luciferin) is added resulting in the enzymatic conversion of luciferin to oxyluciferin and producing bioluminescence. The luminescence is measured as the readout for the assay.
(§3) The cells lines used in these assays were BHK cells with BHKTS13 as a parent cell line. The cell lines were derived from a clone containing the CRE luciferase element and were established by further transfection with the respective human receptor to obtain the relevant cell line: BHK CRE luc2P hGLP-1R or BHK CRE luc2P hGIPR. The cells were cultured at 37° C. with 5% CO2 in Cell Culture Medium. They were aliquoted and stored in liquid nitrogen. The cells were kept in continuous culture and were seeded out the day before each assay.
(§4) GLP-1R Cell Culture Medium consisted of DMEM medium with 10% FBS, 500 μg/mL G418, and 300 μg/mL hygromycin. GIPR Cell Culture Medium consisted of DMEM medium with 10% FBS, 400 μg/mL G418, and 300 μg/mL hygromycin. Assay Buffer consisted of DMEM w/o phenol red, 10 mM Hepes, 1× Glutamax. 1% ovalbumin, and 0.1% Pluronic F-68 with the addition of HSA at twice the final assay concentration.
(§5) Procedure • 1) Cells were plated at 5000 cells/well and incubated overnight in the assay plate. • 2) Cells were washed once in DPBS. • 3) Stocks of the test compounds and reference compounds in concentrations ranging from […] were diluted 1:150 in Assay Buffer. Compounds were then diluted 1:10 in column 1 of a 96 deep well dilution plate and then carried across the row creating a 3.5 fold, 12 point dilution curve. • 4) Assay Buffer (50 μl aliquot) with or without HSA was added to each well in the assay plate. • 5) A 50 μl aliquot of compound or blank was transferred from the dilution plate to the assay plate containing the Assay Buffer with or without HSA. • 6) The assay plate was incubated for 3 h in a 5% CO2 incubator at 37° C. • 7) The cells were washed once with DPBS. • 8) A 100 μl aliquot of DPBS was added to each well of the assay plate. • 9) A 100 μl aliquot of steadylite plus reagent (light sensitive) was added to each well of the assay plate. • 10) Each assay plate was covered with aluminum foil to protect it from light and shaken at 250 RPM for 30 min at room temperature. • 11) Each assay plate was read in a microtiter plate reader.
(§6) The data from the microtiter plate reader was first regressed in an Excel in order to calculate the x-axis, log scale concentrations based on the individual test compound's stock concentration and the dilutions of the assay. […] The software performs a non-linear regression (log(agonist) vs response). A minimum of two replicates was measured for each sample. The reported values are averages of the replicates.

human GIP receptor = biological target: T2, human GIP receptor (Homo sapiens, UniProt P48546); test: In vitro functional potency, CRE luciferase reporter gene assay, whole BHK cells expressing hGIPR; assay type: cell-based; conditions: BHK CRE luc2P hGIPR cells
T2 construct: expressed in transfected cells; host or cells: BHK (parent line BHKTS13), clone BHK CRE luc2P hGIPR
T2 sequence (P48546 22-466): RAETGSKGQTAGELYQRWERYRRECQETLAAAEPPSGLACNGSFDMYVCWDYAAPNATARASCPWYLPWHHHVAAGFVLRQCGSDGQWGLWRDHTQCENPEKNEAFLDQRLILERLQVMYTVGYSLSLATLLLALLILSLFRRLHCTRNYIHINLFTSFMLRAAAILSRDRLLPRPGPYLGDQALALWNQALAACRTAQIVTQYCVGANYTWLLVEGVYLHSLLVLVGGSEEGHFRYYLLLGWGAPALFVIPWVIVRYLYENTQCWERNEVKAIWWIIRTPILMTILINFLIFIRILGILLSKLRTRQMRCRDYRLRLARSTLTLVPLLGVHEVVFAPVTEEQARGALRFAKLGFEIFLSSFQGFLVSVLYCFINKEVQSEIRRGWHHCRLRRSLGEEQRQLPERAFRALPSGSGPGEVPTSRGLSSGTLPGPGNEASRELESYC
Procedure: as §1, §2, §3, §4, §5, §6

[1] = 0% HSA, read-out: hGLP-1R, CRE Luc 0% HSA EC50
[2] = hGLP-1R, CRE Luc 1% HSA EC50, 1% HSA
[3] = 0% HSA, read-out: hGIPR, CRE Luc 0% HSA EC50
[4] = hGIPR, CRE Luc 1% HSA EC50, 1% HSA

T1 sequence (P43220 24-463): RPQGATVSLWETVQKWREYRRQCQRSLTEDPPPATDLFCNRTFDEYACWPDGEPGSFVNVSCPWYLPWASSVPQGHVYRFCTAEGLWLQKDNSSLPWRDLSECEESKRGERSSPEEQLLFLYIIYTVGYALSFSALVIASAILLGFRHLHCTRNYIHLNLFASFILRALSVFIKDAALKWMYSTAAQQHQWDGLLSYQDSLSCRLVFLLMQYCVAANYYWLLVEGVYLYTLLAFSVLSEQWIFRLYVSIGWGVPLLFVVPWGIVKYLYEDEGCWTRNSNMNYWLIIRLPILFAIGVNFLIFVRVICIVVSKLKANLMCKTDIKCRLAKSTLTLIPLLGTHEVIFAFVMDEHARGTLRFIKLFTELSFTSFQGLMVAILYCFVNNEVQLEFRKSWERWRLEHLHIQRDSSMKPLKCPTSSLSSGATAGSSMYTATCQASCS

With CC(C)C[C@H](NC(=O)[C@H](CC(C)C)NC(=O)[C@H](Cc1c[nH]c2ccccc12)NC(=O)[C@H](CC(N)=O)NC(=O)[C@@H](NC(=O)[C@H](Cc1ccccc1)NC(=O)[C@H](C)NC(=O)[C@H](CCC(N)=O)NC(=O)[C@H](C)NC(=O)[C@H](C)NC(=O)[C@H](CCC(N)=O)NC(=O)[C@H](CCCCNC(=O)[C@@H](N)CCCCNC(=O)[C@@H](N)CCCCNC(=O)CC[C@H](NC(=O)CCCCCCCCCCCCCCCCC(=O)O)C(=O)O)NC(=O)[C@H](CCC(=O)O)NC(=O)[C@H](CC(C)C)NC(=O)[C@H](Cc1ccc(O)cc1)NC(=O)[C@H](Cc1ccc(O)cc1)NC(=O)[C@H](CO)NC(=O)[C@H](Cc1ccc(O)cc1)NC(=O)[C@H](CC(=O)O)NC(=O)[C@H](CO)NC(=O)[C@@H](NC(=O)[C@H](Cc1ccccc1)NC(=O)[C@@H](NC(=O)CNC(=O)[C@H](CCC(=O)O)NC(=O)C(C)(C)NC(=O)[C@@H](N)Cc1ccc(O)cc1)[C@@H](C)O)[C@@H](C)O)C(C)C)C(=O)N[C@@H](C)C(=O)NCC(=O)NCC(=O)N1CCC[C@H]1C(=O)N[C@@H](CO)C(=O)N[C@@H](CO)C(=O)NCC(=O)N[C@@H](C)C(=O)N1CCC[C@H]1C(=O)N1CCC[C@H]1C(=O)N1CCC[C@H]1C(=O)N[C@@H](CO)C(=O)O [Compound No. 5] (H-Y[Aib]EGTFTSDYSYYLEK([εLys-εLys-γGlu-C18 diacid])QAAQAFVNWLLAGGPSSGAPPPS-OH; N-terminus assumed) the EC50 (human GLP-1 receptor; [1]) was 0.0094 nM, the EC50 (human GLP-1 receptor; [2]) was 0.625 nM and the EC50 (human GIP receptor; [3]) was 0.0142 nM. The EC50 (human GIP receptor; [4]) was 0.362 nM.
CC[C@H](C)[C@H](NC(=O)[C@H](CO)NC(=O)[C@H](Cc1ccc(O)cc1)NC(=O)[C@H](CC(=O)O)NC(=O)[C@H](CO)NC(=O)[C@@H](NC(=O)[C@H](Cc1ccccc1)NC(=O)[C@@H](NC(=O)CNC(=O)[C@H](CCC(=O)O)NC(=O)C(C)(C)NC(=O)[C@@H](N)Cc1ccc(O)cc1)[C@@H](C)O)[C@@H](C)O)C(=O)N[C@@H](Cc1ccc(O)cc1)C(=O)N[C@@H](CC(C)C)C(=O)N[C@@H](CCC(=O)O)C(=O)N[C@@H](CCCCNC(=O)[C@@H](N)CCCCNC(=O)[C@@H](N)CCCCNC(=O)CC[C@H](NC(=O)CCCCCCCCCCCCCCCCC(=O)O)C(=O)O)C(=O)N[C@@H](CCC(N)=O)C(=O)N[C@@H](C)C(=O)N[C@@H](C)C(=O)N[C@@H](CCCNC(=N)N)C(=O)N[C@@H](CCC(=O)O)C(=O)N[C@@H](Cc1ccccc1)C(=O)N[C@H](C(=O)N[C@@H](CC(N)=O)C(=O)N[C@@H](Cc1c[nH]c2ccccc12)C(=O)N[C@@H](CC(C)C)C(=O)N[C@@H](CC(C)C)C(=O)N[C@@H](C)C(=O)NCC(=O)NCC(=O)N1CCC[C@H]1C(=O)N[C@@H](CO)C(=O)N[C@@H](CO)C(=O)NCC(=O)N[C@@H](C)C(=O)N1CCC[C@H]1C(=O)N1CCC[C@H]1C(=O)N1CCC[C@H]1C(=O)N[C@@H](CO)C(N)=O)C(C)C [Compound No. 6] (H-Y[Aib]EGTFTSDYSIYLEK([εLys-εLys-γGlu-C18 diacid])QAAREFVNWLLAGGPSSGAPPPS-NH2) gave an EC50 (human GLP-1 receptor; [1]) of 0.0034 nM, an EC50 (human GLP-1 receptor; [2]) of 0.243 nM and an EC50 (human GIP receptor; [3]) of 0.0185 nM. It also gave an EC50 (human GIP receptor; [4]) of 0.434 nM.
Molecule CC[C@H](C)[C@H](NC(=O)[C@H](CO)NC(=O)[C@H](Cc1ccc(O)cc1)NC(=O)[C@H](CC(=O)O)NC(=O)[C@H](CO)NC(=O)[C@@H](NC(=O)[C@H](Cc1ccccc1)NC(=O)[C@@H](NC(=O)CNC(=O)[C@H](CCC(=O)O)NC(=O)C(C)(C)NC(=O)[C@@H](N)Cc1ccc(O)cc1)[C@@H](C)O)[C@@H](C)O)C(=O)N[C@@H](Cc1ccc(O)cc1)C(=O)N[C@@H](CC(C)C)C(=O)N[C@@H](CCC(=O)O)C(=O)N[C@@H](CCCCNC(=O)COCCOCCNC(=O)COCCOCCNC(=O)CC[C@H](NC(=O)CCCCCCCCCCCCCCCCC(=O)O)C(=O)O)C(=O)N[C@@H](CCC(N)=O)C(=O)N[C@@H](C)C(=O)N[C@@H](C)C(=O)N[C@@H](CCCNC(=N)N)C(=O)N[C@@H](CCC(=O)O)C(=O)N[C@@H](Cc1ccccc1)C(=O)N[C@H](C(=O)N[C@@H](CC(N)=O)C(=O)N[C@@H](Cc1c[nH]c2ccccc12)C(=O)N[C@@H](CC(C)C)C(=O)N[C@@H](CC(C)C)C(=O)N[C@@H](C)C(=O)NCC(=O)NCC(=O)N1CCC[C@H]1C(=O)N[C@@H](CO)C(=O)N[C@@H](CO)C(=O)NCC(=O)N[C@@H](C)C(=O)N1CCC[C@H]1C(=O)N1CCC[C@H]1C(=O)N1CCC[C@H]1C(=O)N[C@@H](CO)C(N)=O)C(C)C [Compound No. 7] (H-Y[Aib]EGTFTSDYSIYLEK([AEEA-AEEA-γGlu-C18 diacid])QAAREFVNWLLAGGPSSGAPPPS-NH2) has an EC50 (human GLP-1 receptor; [1]) of 0.0042 nM, an EC50 (human GLP-1 receptor; [2]) of 0.513 nM and an EC50 (human GIP receptor; [3]) of 0.0287 nM. It also gave an EC50 (human GIP receptor; [4]) of 0.687 nM.
Work on CC[C@H](C)[C@H](NC(=O)[C@H](Cc1ccccc1)NC(=O)[C@H](CCC(=O)O)NC(=O)[C@H](CCCNC(=N)N)NC(=O)[C@H](C)NC(=O)[C@H](C)NC(=O)[C@H](CCC(N)=O)NC(=O)[C@H](CCCCNC(=O)[C@@H](N)CCCCNC(=O)[C@@H](N)CCCCNC(=O)CC[C@H](NC(=O)CCCCCCCCCCCCCCCCC(=O)O)C(=O)O)NC(=O)[C@H](CCC(=O)O)NC(=O)[C@H](CC(C)C)NC(=O)[C@H](Cc1ccc(O)cc1)NC(=O)[C@@H](NC(=O)[C@H](CO)NC(=O)[C@H](Cc1ccc(O)cc1)NC(=O)[C@H](CC(=O)O)NC(=O)[C@H](CO)NC(=O)[C@@H](NC(=O)[C@H](Cc1ccccc1)NC(=O)[C@@H](NC(=O)CNC(=O)[C@H](CCC(=O)O)NC(=O)C(C)(C)NC(=O)[C@@H](N)Cc1ccc(O)cc1)[C@@H](C)O)[C@@H](C)O)[C@@H](C)CC)C(=O)N[C@@H](CC(N)=O)C(=O)N[C@@H](Cc1c[nH]c2ccccc12)C(=O)N[C@@H](CC(C)C)C(=O)N[C@@H](CC(C)C)C(=O)N[C@@H](C)C(=O)NCC(=O)NCC(=O)N1CCC[C@H]1C(=O)N[C@@H](CO)C(=O)N[C@@H](CO)C(=O)NCC(=O)N[C@@H](C)C(=O)N1CCC[C@H]1C(=O)N1CCC[C@H]1C(=O)N1CCC[C@H]1C(=O)N[C@@H](CO)C(N)=O [Compound No. 8] (H-Y[Aib]EGTFTSDYSIYLEK([εLys-εLys-γGlu-C18 diacid])QAAREFINWLLAGGPSSGAPPPS-NH2) yielded an EC50 (human GLP-1 receptor; [1]) of 0.0023 nM, an EC50 (human GLP-1 receptor; [2]) of 0.0821 nM and an EC50 (human GIP receptor; [3]) of 0.0067 nM. The EC50 (human GIP receptor; [4]) was 0.191 nM.
